Experiments:
Format in all cases: functional
SW-620 = assay: Tested for in vitro cytotoxic activity against colon SW620 human cancer cell lines
NCI/ADR-RES = assay: Tested for in vitro cytotoxic activity against breast MCF-7/ADR human cancer cell lines
A498 = assay: Tested for in vitro cytotoxic activity against renal A498 human cancer cell lines
DU-145 = assay: Tested for in vitro cytotoxic activity against prostate DU145 human cancer cell lines
M14 = assay: Tested for in vitro cytotoxic activity against melanoma M14 human cancer cell lines
U-251 = assay: Tested for in vitro cytotoxic activity against CNS U251 human cancer cell lines
NCI-H522 = assay: Tested for in vitro cytotoxic activity against lung H522 human cancer cell lines
SK-OV-3 = assay: Tested for in vitro cytotoxic activity against ovarian SKOV3 human cancer cell lines

`COc1ccc2c(c1)C(=O)c1nc3ccccc3c(=O)n1-2` showed a GI50 (SW-620) of over 100 µM, a GI50 (NCI/ADR-RES) of over 100 µM and a GI50 (A498) of over 100 µM. The GI50 (DU-145) was over 100 µM, the GI50 (M14) was over 100 µM and the GI50 (U-251) was over 100 µM. For the same molecule, the GI50 (NCI-H522) was over 100 µM and the GI50 (SK-OV-3) was over 100 µM.
`O=c1c2ccccc2nc2n1-c1ccccc1/C2=N\OCCN1CCCC1` was tested, and the GI50 (SW-620) was 0.85 µM, the GI50 (NCI/ADR-RES) was 6 µM and the GI50 (A498) was 5 µM. The GI50 (DU-145) was 3 µM, the GI50 (M14) was 2 µM and the GI50 (U-251) was 25 µM. The GI50 (NCI-H522) was 3 µM and the GI50 (SK-OV-3) was 3 µM.
Work on `O=c1c2ccccc2nc2n1-c1ccc([N+](=O)[O-])cc1/C2=N\OCCO` yielded a GI50 (SW-620) of 0.75 µM, a GI50 (NCI/ADR-RES) of 0.4 µM and a GI50 (A498) of 0.6 µM. The GI50 (DU-145) was 2.5 µM, the GI50 (M14) was 2 µM and the GI50 (U-251) was 0.8 µM. For the same molecule, the GI50 (NCI-H522) was 0.7 µM and the GI50 (SK-OV-3) was 2 µM.
`CCCCC1(O)c2ccccc2-n2c1nc1ccccc1c2=O` (centres undefined) was tested, and the GI50 (SW-620) was over 100 µM, the GI50 (NCI/ADR-RES) was over 100 µM and the GI50 (A498) was over 100 µM. For the same molecule, the GI50 (DU-145) was over 100 µM, the GI50 (M14) was over 100 µM and the GI50 (U-251) was over 100 µM. It also gave a GI50 (NCI-H522) of over 100 µM and a GI50 (SK-OV-3) of over 100 µM.
In the case of `CN(C)CCO/N=C1\c2cc(Br)ccc2-n2c1nc1ccccc1c2=O`, the GI50 (SW-620) is reported as 3 µM, the GI50 (NCI/ADR-RES) is reported as 0.06 µM and the GI50 (A498) is reported as 1.5 µM. It also gave a GI50 (DU-145) of 0.2 µM, a GI50 (M14) of 2 µM and a GI50 (U-251) of 0.45 µM. The GI50 (NCI-H522) was 2 µM and the GI50 (SK-OV-3) was 3 µM.
In the case of `CN1CCN(CC(=O)Nc2ccc3c(c2)C(=O)c2nc4ccccc4c(=O)n2-3)CC1`, the GI50 (SW-620) is reported as 10 µM, the GI50 (NCI/ADR-RES) is reported as 20 µM and the GI50 (A498) is reported as 20 µM. It also gave a GI50 (DU-145) of 10 µM, a GI50 (M14) of 8 µM and a GI50 (U-251) of over 100 µM. It also gave a GI50 (NCI-H522) of 15 µM and a GI50 (SK-OV-3) of 6 µM.
For `O=C(CO/N=C1\c2ccccc2-n2c1nc1ccccc1c2=O)Nc1ccccn1`, the GI50 (SW-620) was over 100 µM, the GI50 (NCI/ADR-RES) was 8 µM and the GI50 (A498) was 20 µM. The GI50 (DU-145) was 10 µM, the GI50 (M14) was 95 µM and the GI50 (U-251) was 8.5 µM. For the same molecule, the GI50 (NCI-H522) was 25 µM and the GI50 (SK-OV-3) was 52 µM.
For `O=C1c2ccccc2-n2c1nc1ccc([N+](=O)[O-])cc1c2=O`, the GI50 (SW-620) was over 100 µM, the GI50 (NCI/ADR-RES) was over 100 µM and the GI50 (A498) was over 100 µM. For the same molecule, the GI50 (DU-145) was over 100 µM, the GI50 (M14) was over 100 µM and the GI50 (U-251) was over 100 µM. The GI50 (NCI-H522) was over 100 µM and the GI50 (SK-OV-3) was over 100 µM.
In the case of `O=C1c2cc(Cl)ccc2-n2c1nc1ccccc1c2=O`, the GI50 (SW-620) is reported as over 100 µM, the GI50 (NCI/ADR-RES) is reported as over 100 µM and the GI50 (A498) is reported as over 100 µM. The GI50 (DU-145) was over 100 µM, the GI50 (M14) was over 100 µM and the GI50 (U-251) was over 100 µM. The GI50 (NCI-H522) was over 100 µM and the GI50 (SK-OV-3) was over 100 µM.
With `CN(C)CCCO/N=C1\c2ccccc2-n2c1nc1ccccc1c2=O` the GI50 (SW-620) was 4 µM, the GI50 (NCI/ADR-RES) was 7.5 µM and the GI50 (A498) was 4 µM. The GI50 (DU-145) was 3.5 µM, the GI50 (M14) was 5 µM and the GI50 (U-251) was 0.7 µM. For the same molecule, the GI50 (NCI-H522) was 0.6 µM and the GI50 (SK-OV-3) was 2 µM.
`CCCC(=O)Nc1ccc2c(c1)C(=O)c1nc3ccccc3c(=O)n1-2` was tested, and the GI50 (SW-620) was 10.5 µM, the GI50 (NCI/ADR-RES) was 10 µM and the GI50 (A498) was 20 µM. The GI50 (DU-145) was 20 µM, the GI50 (M14) was 18.5 µM and the GI50 (U-251) was 12 µM. For the same molecule, the GI50 (NCI-H522) was 18.2 µM and the GI50 (SK-OV-3) was 6 µM.
Molecule `O=Nc1c2ccccc2n2c(O)c3ccccc3nc12` has a GI50 (SW-620) of 8 µM, a GI50 (NCI/ADR-RES) of 15 µM and a GI50 (A498) of 60 µM. The GI50 (DU-145) was 50 µM, the GI50 (M14) was 40 µM and the GI50 (U-251) was 15 µM. The GI50 (NCI-H522) was 50 µM and the GI50 (SK-OV-3) was 30 µM.
Work on `Nc1ccc2nc3n(c(=O)c2c1)-c1ccccc1C3=O` yielded a GI50 (SW-620) of 60 µM, a GI50 (NCI/ADR-RES) of 40 µM and a GI50 (A498) of 80 µM. For the same molecule, the GI50 (DU-145) was 60 µM, the GI50 (M14) was 60 µM and the GI50 (U-251) was 70 µM. The GI50 (NCI-H522) was 60 µM and the GI50 (SK-OV-3) was 40 µM.
With `CCC(=O)Nc1ccc2c(c1)C(=O)c1nc3ccccc3c(=O)n1-2` the GI50 (SW-620) was 22 µM, the GI50 (NCI/ADR-RES) was 20 µM and the GI50 (A498) was 7 µM. For the same molecule, the GI50 (DU-145) was 10 µM, the GI50 (M14) was 10 µM and the GI50 (U-251) was over 100 µM. It also gave a GI50 (NCI-H522) of 18 µM and a GI50 (SK-OV-3) of 8 µM.
Molecule `Cc1ccc2c(c1)C(=O)c1nc3ccccc3c(=O)n1-2` has a GI50 (SW-620) of over 100 µM, a GI50 (NCI/ADR-RES) of 0.1 µM and a GI50 (A498) of 60 µM. It also gave a GI50 (DU-145) of over 100 µM, a GI50 (M14) of 60 µM and a GI50 (U-251) of 20 µM. The GI50 (NCI-H522) was 0.15 µM and the GI50 (SK-OV-3) was over 100 µM.
Work on `O=c1c2ccccc2nc2n1-c1ccccc1/C2=N\OCCO` yielded a GI50 (SW-620) of 20 µM, a GI50 (NCI/ADR-RES) of 0.01 µM and a GI50 (A498) of 40 µM. The GI50 (DU-145) was 3 µM, the GI50 (M14) was 30 µM and the GI50 (U-251) was 1 µM. For the same molecule, the GI50 (NCI-H522) was 7 µM and the GI50 (SK-OV-3) was 20 µM.
In the case of `O=C1c2cc([N+](=O)[O-])ccc2-n2c1nc1ccccc1c2=O`, the GI50 (SW-620) is reported as 25 µM, the GI50 (NCI/ADR-RES) is reported as 1 µM and the GI50 (A498) is reported as 2 µM. The GI50 (DU-145) was 8 µM, the GI50 (M14) was 15 µM and the GI50 (U-251) was 4.5 µM. The GI50 (NCI-H522) was 4.8 µM and the GI50 (SK-OV-3) was 25 µM.
With `Nc1ccc2c(c1)C(=O)c1nc3ccccc3c(=O)n1-2` the GI50 (SW-620) was 4.8 µM, the GI50 (NCI/ADR-RES) was 5 µM and the GI50 (A498) was 3 µM. The GI50 (DU-145) was 2 µM, the GI50 (M14) was 5 µM and the GI50 (U-251) was 0.7 µM. For the same molecule, the GI50 (NCI-H522) was 5 µM and the GI50 (SK-OV-3) was 5 µM.

— ChEMBL document CHEMBL1134884, “Novel indolo[2,1-b]quinazoline analogues as cytostatic agents: synthesis, biological evaluation and structure-activity relationship” (Bioorg Med Chem Lett, 2002)
